In US8900444B2, “Switchable hydrophilicity solvents and methods of use thereof” (Queen's University at Kingston, priority 2009, dated 2014):
“Also recorded” adds a separate entry of the source. Read-outs that look alike come from different tables or passages of the source.

Columns and labels:
Format in all cases: physicochemical
[1] = Miscibility of amines with water in the absence of CO2 (Example 5A)
Procedure: 1 mL of an appropriate amine was combined with 1 mL of H2O in a 4 mL vial, with the 1 and 2 mL volume lines marked. The vial was manually shaken and left to settle at room temperature. After the mixture settled, the number of phases was observed visually. This procedure was performed for all of the screened amines.

[2] = Miscibility of amines with water in the presence of CO2 (Example 5B); conditions: CO2 bubbled through amine/water mixture for at least one hour
Procedure: All of the amines that formed a biphasic mixture in Example 5A were subjected to the following test. Carbon dioxide was bubbled through the amine/water biphasic mixture, via a syringe needle, for at least one hour. Care was taken to regulate the rate of the CO2 bubbling, so as not to cause evaporation of the amine. The liquid-liquid interface was observed over the course of CO2 bubbling, and a photo was taken after 60 minutes.

[3] = Water miscibility of amidines in neutral form and after CO2; conditions: for miscibility with water, neutral (unprotonated) amidine form: no CO2
From the text: This represents relatively hydrophilic character. The amidines A-D are unsatisfactory for use as a switchable hydrophilicity solvent because they are insufficiently hydrophobic in their amidine form. […] Since such amidines are not separable from water after switching from their hydrophilic to hydrophobic forms, they are unsuitable for use in the present invention.
Exposure of a 1:1 by volume mixture of two immiscible liquids, hydrophobic PA and water, to gaseous CO2, at 1 atmosphere, caused a conversion to a hydrophilic liquid comprising an aqueous solution of N,N,N′-tripropylbutyramidinium bicarbonate (PAB) (see FIG. 1 for the chemical scheme in which R^1-4 are propyl). NMR data for the PA/water system is presented in FIGS. 4 and 5 and IR data in FIG. 6. FIGS. 4A and 5A show ^1H and ^13C NMR data for PA. After switching, the detection of the N,N,N′-tripropylbutyramidinium bicarbonate salt was confirmed by ^1H and ^13C NMR as shown in FIGS. 4B and 5B.
Similarly, exposure of a 1:1 by volume mixture of two immiscible liquids, hydrophobic BA and water, to gaseous CO2, at 1 atmosphere, caused a conversion to a hydrophilic liquid comprising an aqueous solution of N,N,N′-tributylpentanamidinium bicarbonate (BAB) (see FIG. 1 for the chemical scheme in which R^1-4 are butyl). NMR data for the […] is presented in FIGS. 7 and 8 and IR data in FIG. 9. […] show ^1H and ^13C NMR data for BA. After switching, the detection of the N,N,N′-tributylpentanamidinium bicarbonate salt was confirmed by ^1H and ^13C NMR as shown in FIGS. 6B and 7B. The hydrophilic aqueous solution of BAB was converted back into hydrophobic BA and water by heating at 80° C.

[4] = Conversion of amine switchable hydrophilicity solvents back to hydrophobic form by heating (Example 5C); conditions: 80 °C, approximately 60 minutes
Procedure: All of the amines identified as switchable hydrophilicity solvents in Example 5B (except N,N-dimethylbutylamine) were subjected to the following test. The vial containing the single-phase amine/water/CO2 mixture prepared in example 5B was heated in an oil bath at 80° C. for approximately 60 minutes. The mixture was magnetically stirred, and phase separation was observed throughout the course of heating. In the case of the N1,N1,N4,N4-tetraethylbutane-1,4-diamine/water/CO2 mixture, 5 hours of heating was required to switch it back to its hydrophobic form.

[5] = Visual and NMR study of amine switchable hydrophilicity solvents (Example 6); conditions: for loss of volume after CO2 bubbling / time of CO2 bubbling to form one homogeneous solution / total volume after CO2 bubbling / number of layers formed without CO2: 1 mL amine + 1 mL D2O; for number of layers formed without CO2: room temperature
Procedure: The following amines were evaluated in this series of experiments: N-ethylpiperidine, N,N-dimethylcyclohexylamine, and N,N-dimethylhexylamine. The sequence of experiments is described for one amine but was performed for all three. The visual observations are described in Table 3. 1,4-Dioxane was used as an internal standard for NMR spectroscopy.
Amine (1 mL) was combined with D2O (1 mL) in a 10 mL graduated cylinder, which was then capped with a rubber septum. The cylinder was manually shaken and left to settle at room temperature, after which the mixture appeared as two transparent liquid phases. For each amine, this procedure was simultaneously conducted in 3 identical cylinders. From the aqueous (bottom) layer of one of the three cylinders, three 250 μL samples were withdrawn, combined with equal volumes of D2O and dioxane internal standard, and analyzed by ^1H NMR spectroscopy. The spectra were consistent with the amine in the aqueous phase being in its neutral form. The graduated cylinder from which the samples were taken was discarded.
For each of two remaining graduated cylinders, carbon dioxide was bubbled through the amine/water biphasic mixture, via a syringe needle, for at least one hour. Care was taken to regulate the rate of the CO2 bubbling, so as not to cause significant evaporation of the amine. The mixture changed from a biphasic liquid mixture to a single homogeneous liquid phase. From one of the two graduated cylinders, a 300 μL sample of the homogenous liquid phase was withdrawn and mixed with an equal volume of D2O and a known quantity of dioxane internal standard. […] The graduated cylinder from which the sample was taken was discarded.
The remaining graduated cylinder, containing the single-phase amine/water/CO2 mixture prepared above, was heated in an oil bath at 80 deg. C for 1 hour. Phase separation was observed. Three 250 μL samples of the aqueous (bottom) layer were withdrawn, combined with equal volumes of D2O and a known quantity of dioxane internal standard, and analyzed by NMR spectroscopy.

[6] = Converting ammonium bicarbonate salt to amine by bubbling air at room temperature (Example 5D)
Procedure: A homogeneous aqueous solution of dimethylcyclohexylammonium bicarbonate was prepared by mixing N,N-dimethylcyclohexylamine (1 mL), and H2O (1 mL) and bubbling with CO2 for 90 minutes. The 2.0 mL solution was placed in a 10 mL graduated cylinder with a magnetic stir bar and that was then stoppered with a rubber septum. Air was bubbled through the solution for a total of 28 hours, with constant stirring. […] Total volume loss after 28 hours was 0.1 mL.

[7] = 1 mL amine + 1 mL H2O, room temperature, visual
[8] = 2.0 mL aqueous solution, stirring

## CN(C)Cc1cc(CN(C)C)cc(CN(C)C)c1 [1,1′,1″-(benzene-1,3,5-triyl)tris(N,N-dimethylmethanamine)]
[1]; [7]
  miscibility with water under air (absence of CO2): biphasic
[2]
  miscibility with water after CO2 treatment: single-phase

## CN(C)CC1CC(CN(C)C)CC(CN(C)C)C1 (stereo not shown) [1,1′,1″-(cyclohexane-1,3,5-triyl)tris(N,N-dimethylmethanamine]
[1]; [7]
  miscibility with water under air (absence of CO2): biphasic
[2]
  miscibility with water after CO2 treatment: single-phase

## C1CCC2=NCCCN2CC1 [DBU, 1,8-diazabicyclo-[5.4.0]-undec-7-ene, reference compound]
[3]
  miscibility with water, neutral (unprotonated) amidine form: water-miscible

## CN(C)CCCCN(C)C [Me2NCH2CH2CH2CH2NMe2, reference compound]
[1]; [7]
  miscibility with water under air (absence of CO2): miscible

## CCCCCCN=C(C)N(C)C [Me2N—C(═N-hexyl)Me, reference compound]
[3]
  miscibility with water, neutral (unprotonated) amidine form: water-miscible

## CN(C)CCN(C)C [N,N,N′,N′,-tetramethylethylenediamine, reference compound]
[1]
  miscibility with water under air (absence of CO2): single-phase

## CCCN(CCC)CCCCN(CCC)CCC [N,N,N′,N′-tetrapropylbutane-1,4-diamine, reference compound]
[1]; [7]
  miscibility with water under air (absence of CO2): biphasic
[2]
  miscibility with water after CO2 treatment: biphasic
[2]; listed as Pr2NCH2CH2CH2CH2NPr2
  miscibility with water after CO2 treatment: immiscible

## CCN(CC)C1CCCCC1 [N,N-diethyl-N-cyclohexylamine]
[1]; [7]
  miscibility with water under air (absence of CO2): immiscible with water
[2]
  miscibility with water after CO2 treatment: became water-miscible

## CCN(C)CC [N,N-diethyl-N-methylamine]
[1]; [7]
  miscibility with water under air (absence of CO2): immiscible with water
[2]
  miscibility with water after CO2 treatment: became water-miscible

## CCCCN(CC)CC [N,N-diethylbutylamine]
[1]; [7]
  miscibility with water under air (absence of CO2): biphasic
[1]; 1 mL amine + 1 mL H2O, room temperature, visual, listed as diethylbutylamine
  miscibility with water under air (absence of CO2): immiscible with water
[2]
  miscibility with water after CO2 treatment: single-phase
[2]; listed as diethylbutylamine
  miscibility with water after CO2 treatment: became water-miscible
[4]
  loss of amine during heating (excessive volatility): loss of amine

## CCN(C(C)C)C(C)C [N,N-diisopropylethylamine, reference compound]
[1]; [7]
  miscibility with water under air (absence of CO2): biphasic
[2]
  miscibility with water after CO2 treatment: biphasic

## CN(C)c1ccccc1 [N,N-dimethylaniline, reference compound]
[1]; [7]
  miscibility with water under air (absence of CO2): biphasic
[2]
  miscibility with water after CO2 treatment: biphasic

## CCCCN(C)C [N,N-dimethylbutylamine]
[1]; [7]
  miscibility with water under air (absence of CO2): biphasic
[2]
  miscibility with water after CO2 treatment: single-phase

## CCCCCCCCCCCCN(C)C [N,N-dimethyldodecylamine, reference compound]
[1]; [7]
  miscibility with water under air (absence of CO2): biphasic
[2]
  miscibility with water after CO2 treatment: biphasic

## CCCCCCN(C)C [N,N-dimethylhexylamine]
[1]; [7]
  miscibility with water under air (absence of CO2): biphasic
[1]; 1 mL amine + 1 mL H2O, room temperature, visual, listed as dimethylhexylamine
  miscibility with water under air (absence of CO2): immiscible with water
[2]
  miscibility with water after CO2 treatment: single-phase
[2]; listed as dimethylhexylamine
  miscibility with water after CO2 treatment: became water-miscible
[5]
  loss of volume after CO2 bubbling: (loss of 0.1 mL)
  time of CO2 bubbling to form one homogeneous solution: took 75 min to form one
  total volume after CO2 bubbling: total volume is 1.9 mL
  number of layers formed without CO2: formed 2 clear,
[5]; oil bath 80 deg. C
  time of heating to separate into 2 layers: after 30 min solution has
  volume of bottom (aqueous) layer after heating: 1 mL
  volume of top layer after heating: 0.9 mL

## CCCN(CC)CCCCN(CC)CCC [N,N′-dipropyl-N,N′-diethylbutane-1,4-diamine]
[1]; [7]
  miscibility with water under air (absence of CO2): biphasic
[1]; 1 mL amine + 1 mL H2O, room temperature, visual, listed as EtPrNCH2CH2CH2CH2NEtPr
  miscibility with water under air (absence of CO2): immiscible
[2]
  miscibility with water after CO2 treatment: single-phase
[2]; listed as EtPrNCH2CH2CH2CH2NEtPr
  miscibility with water after CO2 treatment: miscible

## CCCCN1CCCC1 [N-butylpyrrolidine]
[1]; [7]
  miscibility with water under air (absence of CO2): immiscible with water; also recorded: biphasic
[2]
  miscibility with water after CO2 treatment: became water-miscible; also recorded: single-phase

## CCN1CCOCC1 [N-ethylmorpholine, reference compound]
[1]; [7]
  miscibility with water under air (absence of CO2): single-phase

## CCN1CCCCC1 [N-ethylpiperidine]
[1]; [7]
  miscibility with water under air (absence of CO2): immiscible with water; also recorded: biphasic
[2]
  miscibility with water after CO2 treatment: became water-miscible; also recorded: single-phase
[5]
  loss of volume after CO2 bubbling: (loss of 0.1 mL)
  time of CO2 bubbling to form one homogeneous solution: took 60 min to form one
  total volume after CO2 bubbling: total volume is 1.9 mL
  number of layers formed without CO2: formed 2 layers;
[5]; 80 deg. C, 1 hour, NMR spectroscopy, dioxane internal standard
  amine remaining in the aqueous phase after heating: showed that approximately 49%
[5]; oil bath 80 deg. C
  time of heating to separate into 2 layers: after 30 min, separated into 2
  volume of top layer after heating: 0.7 mL. NMR spectroscopy

## CN1CCCCC1 [N-methylpiperidine, reference compound]
[1]; [7]
  miscibility with water under air (absence of CO2): single-phase

## CCCN=C(CCC)N(CCC)CCC [PA, N,N,N′-tripropylbutyramidine]
[3]; CO2 and water
  miscibility with water after CO2 trigger (amidinium bicarbonate form): became miscible
[3]
  miscibility with water, neutral (unprotonated) amidine form: immiscible with water

## CN(C)C1CCCCC1.O=C(O)O [dimethylcyclohexylammonium bicarbonate]
[6]
  total volume loss after 28 hours of air bubbling: 0.1 mL
  volume of bottom layer after 28 hours of air bubbling: 1.6 mL
  volume of top layer after 28 hours of air bubbling: 0.3 mL
[6]; [8]
  observation after 8 hours of air bubbling: no observed phase separation or volume loss
  observation after 28 hours of air bubbling: a two-phase liquid mixture was observed

## CCCCCCCCN(CCCCCCCC)CCCCCCCC [trioctylamine, reference compound]
[1]; [7]
  miscibility with water under air (absence of CO2): biphasic
[2]
  miscibility with water after CO2 treatment: biphasic

## CCCN(CCC)CCC [tripropylamine, reference compound]
[1]; [7]
  miscibility with water under air (absence of CO2): biphasic
[2]
  miscibility with water after CO2 treatment: biphasic
